Data reported in US8440640B2, “Methods and compositions for treating obesity and related disorders” (University of Medicine and Dentistry of New Jersey, priority 2008, dated 2013).
Entries after “also recorded” stand apart in the source; their conditions may differ. Like-named read-outs stand apart in the source and are kept apart here. Values belong to the compound of their own block, whether it stands above or below them.

What was measured:
AC5 [1] = biological target: AC5 (UniProt P30803); assay: Inhibition of recombinant AC5 (baculovirus overexpression system); type: biochemical; design: IC50 AC5
AC5 [2] = assay: as above; type: biochemical; conditions: for Selectivity ratio for AC5, AC5/AC2: ratio of IC50 for AC5 to that for AC2; for Selectivity ratio for AC5, AC5/AC3: ratio of IC50 for AC5 to that for AC3
AC2 [3] = conditions: previously noted; cited from earlier work
AC2 [4] = biological target: AC2 (UniProt P26769); assay: Inhibition of recombinant AC2 (baculovirus overexpression system); conditions: for inhibition of AC2: in the presence of Gs-α/GTPαS/forskolin; for IC50: read-out: IC50 AC2, recombinant AC proteins, Table 1
AC5 [5] = biological target: AC5 (UniProt P30803); assay: Inhibition of recombinant AC5 (baculovirus overexpression system); type: biochemical; design: IC50 for AC5; other: in the presence of Gs-α/GTPαS/forskolin; conditions: in the presence of Gs-α/GTPαS/forskolin
AC3 = biological target: T1, AC3 (Rattus norvegicus, UniProt P21932); assay: Inhibition of recombinant AC3 (baculovirus overexpression system); type: biochemical; conditions: for inhibition of AC3: in the presence of Gs-α/GTPαS/forskolin
T1 construct: made in house; host or cells: insect cells (baculovirus)
T1 sequence (P21932 1-1144): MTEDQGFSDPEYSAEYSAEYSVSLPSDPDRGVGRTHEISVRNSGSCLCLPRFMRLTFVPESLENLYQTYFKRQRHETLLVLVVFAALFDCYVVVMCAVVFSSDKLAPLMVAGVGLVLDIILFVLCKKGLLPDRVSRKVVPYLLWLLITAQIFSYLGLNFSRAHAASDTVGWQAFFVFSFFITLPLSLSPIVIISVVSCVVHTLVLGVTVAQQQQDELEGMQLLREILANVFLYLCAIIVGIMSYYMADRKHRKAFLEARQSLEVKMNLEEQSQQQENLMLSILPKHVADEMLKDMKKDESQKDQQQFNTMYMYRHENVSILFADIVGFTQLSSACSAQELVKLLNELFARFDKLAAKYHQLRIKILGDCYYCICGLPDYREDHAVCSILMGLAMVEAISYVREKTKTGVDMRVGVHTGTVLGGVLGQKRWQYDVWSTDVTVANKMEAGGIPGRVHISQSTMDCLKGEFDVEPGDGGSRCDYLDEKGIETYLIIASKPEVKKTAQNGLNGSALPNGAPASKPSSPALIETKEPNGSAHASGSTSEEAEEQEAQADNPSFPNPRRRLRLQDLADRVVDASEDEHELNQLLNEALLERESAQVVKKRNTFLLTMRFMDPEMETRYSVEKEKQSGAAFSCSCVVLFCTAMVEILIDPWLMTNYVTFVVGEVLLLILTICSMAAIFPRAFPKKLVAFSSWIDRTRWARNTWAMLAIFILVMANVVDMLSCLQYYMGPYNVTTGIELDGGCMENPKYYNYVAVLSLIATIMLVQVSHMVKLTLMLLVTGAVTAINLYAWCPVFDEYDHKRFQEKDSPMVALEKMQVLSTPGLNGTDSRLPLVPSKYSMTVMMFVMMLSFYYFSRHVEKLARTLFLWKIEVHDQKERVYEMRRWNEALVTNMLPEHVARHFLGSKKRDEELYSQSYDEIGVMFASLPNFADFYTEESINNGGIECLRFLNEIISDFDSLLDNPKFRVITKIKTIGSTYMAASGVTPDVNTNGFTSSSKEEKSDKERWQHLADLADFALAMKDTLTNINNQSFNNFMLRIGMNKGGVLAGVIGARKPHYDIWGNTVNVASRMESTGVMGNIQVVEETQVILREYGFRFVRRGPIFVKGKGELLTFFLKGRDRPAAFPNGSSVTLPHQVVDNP

brain function = assay: Bradykinesia and locomotor activity; conditions: as observed in AC5 KO
[6] = Tolerability of subcutaneous mini-osmotic pump infusion; type: in vivo; conditions: infused subcutaneously, up to 3 months
myocardial infarction = assay: Survival after myocardial infarction; conditions: in vivo
AC6 = assay: Forskolin-stimulated 32P-cAMP production in heart membranes from AC6 Tg mice; type: biochemical, mouse; conditions: forskolin 50 mM, n=4
Protocol: (§1) Hearts were dissected from the mice and membrane preparations were prepared as described previously. Protein concentration was measured by the method of Bradford using bovine serum albumin as a standard. AC activity was measured as described previously. AC activity was linear within the incubation time up to 30 min. In order to harvest hearts for tissue cAMP content measurements, mice were allowed to acclimate to the surroundings in the laboratory for an hour before sacrifice. Freshly isolated hearts were briefly immersed in liquid nitrogen. The tissue was homogenized in ice-cold 6% percholic acid, and cAMP was extracted as described before. The concentration of cAMP was determined with an RIA kit (PerkinElmer Life Sciences, Boston, Mass., USA).

[7] = test system: high-fat-diet-fed C57BL/6 mice; assay: High-fat-diet-fed C57BL/6 mice treated with AraAde; type: in vivo, mouse; design: insulin resistance, HOMA IR: unit not given here
[8] = test system: C57Bl/6 mice with chronic ISO infusion; assay: Chronic ISO infusion model; type: in vivo, mouse
Description: Mice were then subjected to echocardiography (LVEF) (A); and tissue was harvested for pathological examination of myocardial apoptosis (by TUNEL) (B); and fibrosis (by PASR) (C). n=4-9.*p<0.05 vs. all other groups. […] Thus, this AC5 inhibitor is protective against the development of ISO-induced cardiomyopathy.

[9] = test system: cultured cardiac myocytes; assay: ISO-induced apoptosis and contraction in cultured cardiac myocytes; type: cell-based
cardiac myocytes [10] = assay: ISO-induced cAMP accumulation in cardiac myocytes; type: cell-based, mouse
Description: Decreases in cAMP in AC5 KO were observed only at high ISO concentrations. […] (Toya et al., J Mol Cell Cardiol., 1998; 30(1):97-108)

[11] = test system: AC activity in the heart of dogs; assay: Forskolin-induced haemodynamic response in instrumented dog; type: in vivo; conditions: AraAde 15 mg/kg intravenously, forskolin 50 nmol/kg
Description: An adult mongrel dog (16.5 kg, male) was surgically instrumented, for measurements of LV pressure (P), LV dP/dt, aortic pressure, ascending aortic blood flow (stroke volume) and mean aortic blood flow (cardiac output). (a) The response to intravenous infusion of Forskolin (50 nmol/kg) is shown on the phasic waveforms on the left. LV dP/dt, aortic flow (stroke volume) and mean aortic flow (cardiac output) are increased.

AC5 [12] = assay: Forskolin-stimulated 32P-cAMP production in heart membranes from AC5 Tg mice; type: biochemical, mouse; design: dose or concentration left out as unconfirmed; conditions: n=4
[13] = occur in roughly half of administered patients; cited from earlier work
[14] = test system: AC activity in heart membranes; assay: ISO-stimulated AC activity in heart membranes of WT and AC5KO mice; type: biochemical, mouse; conditions: 10 μM
Protocol: as §1
cAMP production in membranes from the hearts of AC5KO and WT at 6 months of age was examined. The steady state AC activity was determined as the maximal capacity of cAMP production in the presence of ISO (100 μM ISO+100 μM GTP), GTPγS (100 μM) or forskolin (100 μM). […] Basal cardiac function was not decreased, but the response to ISO and muscarinic inhibition of ISO were attenuated.

AC5 [15] = conditions: cited from earlier work
cardiac myocytes [16] = conditions: cited from earlier work
[17] = recombinant AC proteins, Table 1, read-out: IC50 AC5
[18] = recombinant AC proteins, Table 1, read-out: IC50 AC3

IC50 (AC5 [1]; read-out: IC50 for AC5): 0.82 µM
SMILES: Nc1ncnc2c1ncn2[C@H]1C[C@H](OP(=O)(O)O)[C@@H](CO)O1 [2′-d-3′-AMP]

SMILES: Nc1ncnc2c1ncn2C1CCCO1 (stereo not drawn) [THFA, 9-(tetrahydro-2-furyl) adenine]
selectivity ratio between AC5 and AC2 (AC5 [2]): 130 | selectivity ratio between AC6 and AC2 (AC2 [3]): 1.8 | inhibition of AC2 (AC2 [4]): only to a modest degree | inhibition of AC5 (AC5 [5]): potently inhibited | inhibition of AC3 (AC3): only to a modest degree

SMILES: Nc1ncnc2c1ncn2[C@@H]1O[C@H](CO)[C@@H](O)[C@@H]1O [AraAde, 9-β-D-arabinofuranosyladenine]
bradykinesia and impaired locomotor activity (brain function): does not induce | IC50 (AC5 [1]; [17]): 9.8 µM | tolerability [6]: well tolerated | survival rate after myocardial infarction (myocardial infarction): increased | forskolin induced cAMP production, hearts from AC6 Tg (AC6): not | plasma insulin level ([7]; 15 mg/kg/day, high-fat diet): unchanged; also recorded: the elevation in insulin was minimal | fasting blood glucose ([7]; 15 mg/kg/day, high-fat diet, vs vehicle): decreased | glucose tolerance ([7]; 94 days high fat diet, 42 days AraAde): improved | insulin resistance, HOMA IR ([7]; terminal blood after 6-7 hour fast, n=2): 6.38 | ISO-induced cardiac fibrosis (PASR) ([8]; AraAde 100 μg/g/day): significantly inhibited | ISO-induced myocardial apoptosis (TUNEL) ([8]; AraAde 100 μg/g/day): significantly inhibited | chronic ISO-induced decreases in LVEF ([8]; AraAde 20 mg/kg/day for 1 week, echocardiography): inhibited | exercise performance, maximum treadmill speed ([8]; chronic ISO 60 mg/kg/day for 1 week, AraAde 15 mg/kg/day, n=4-6): rescued exercise performance | ISO induced apoptosis in cultured cardiac myocytes [9]: prevented | maximum level of suppression of ISO-induced cAMP accumulation (cardiac myocytes [10]): around 30% | forskolin-induced LV dP/dt max [11]: attenuated | forskolin-induced cardiac output [11]: attenuated | IC50 (AC2 [4]): 7200 µM | forskolin induced cAMP production, hearts from AC5 Tg (AC5 [12]): dramatically decreased | IC50 (AC3; [18]): 375 µM

IC50 (AC5 [1]; [17]): 0.32 µM | IC50 (AC2 [4]): 65.3 µM | IC50 (AC3; [18]): 11.1 µM
SMILES: Nc1ncnc2c1ncn2C1CCC(C(=O)NO)C1 (stereo not drawn) [PMC-6]
Selectivity ratio for AC5, AC5/AC2 (AC5 [2]): 0.0049 | Selectivity ratio for AC5, AC5/AC3 (AC5 [2]): 0.029

IC50 (AC5 [1]; read-out: IC50 for AC5): 14.6 µM
SMILES: Nc1ncnc2c1ncn2[C@@H]1O[C@H](CO)[C@@H](OP(=O)(O)O)[C@H]1O [3′-AMP]

SMILES: Nc1nc(F)nc2c1ncn2[C@@H]1O[C@H](CO)[C@@H](O)[C@@H]1O [fludarabine]
adverse effects in patients [13]: severe adverse effects including bone marrow suppression

SMILES: C[N+](C)(C)CCOC(N)=O [Carbachol]
inhibition of ISO-stimulated AC activity in AC5KO ([14]; AC5KO heart membranes): did not inhibit | decrease of ISO-stimulated AC activity in WT ([14]; WT heart membranes): 21+/−3.4%

inhibition of AC2 (AC2 [4]): only to a modest degree | inhibition of AC5 (AC5 [5]): potently inhibited | inhibition of AC3 (AC3): only to a modest degree
SMILES: Nc1ncnc2c1ncn2C1CCCC1 [CPA, 9-(cyclopentyl) adenine]

SMILES: C[C@H]1O[C@@H](n2cnc3c(N)ncnc32)C[C@@H]1O [2′5′-dd-Ado, 2′5′ dideoxyadenosine]
IC50 (AC5 [1]; [17]): 1.6 µM | Selectivity ratio for AC5, AC5/AC2 (AC5 [2]): 0.00067 | Selectivity ratio for AC5, AC5/AC3 (AC5 [2]): 0.0063 | ISO induced apoptosis in cultured cardiac myocytes [9]: prevented | contraction in cultured cardiac myocytes [9]: without impairing contraction | maximum level of suppression of ISO-induced cAMP accumulation (cardiac myocytes [10]): around 30% | IC50 (AC2 [4]): 2380 µM | IC50 (AC3): 253 µM

SMILES: Nc1ncc2c(n1)CC(c1ccco1)CC2=O (stereo not drawn) [NKY80, 2-amino-7-(2-furanyl)-7,8-dihydro-5(6H)-quinazoline]
inhibition of purified AC5 protein in vitro (AC5 [15]): moderate inhibition | inhibition of cAMP accumulation in cultured cardiac myocytes (cardiac myocytes [16]): does not inhibit
